“And” between values parts separate entries of the source, which are not always exact repeats. Equal entries are not always repeated.
Biological target: T1, human TAS2R4 (Homo sapiens, UniProt Q9NYW5)
T1 construct: expressed in transfected cells; host or cells: HEK293T-Gα16gust44
T1 sequence (Q9NYW5 1-299): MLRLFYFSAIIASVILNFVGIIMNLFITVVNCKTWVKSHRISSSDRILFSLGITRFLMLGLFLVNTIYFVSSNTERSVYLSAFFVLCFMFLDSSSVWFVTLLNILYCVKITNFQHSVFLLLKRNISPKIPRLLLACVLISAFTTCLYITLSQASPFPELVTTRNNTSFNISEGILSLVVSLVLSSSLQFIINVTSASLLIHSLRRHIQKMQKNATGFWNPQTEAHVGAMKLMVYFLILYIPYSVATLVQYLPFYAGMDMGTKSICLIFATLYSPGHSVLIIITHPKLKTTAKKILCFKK
Test: Calcium imaging assay (FLIPR), HEK293T-Gα16gust44 cells transfected with human TAS2R4
Assay type: cell-based
Experimental: This set of bile acids was chosen because of their commercial availability in high purities, their diversity within the class of bile acids and their previous detection and quantitation in human blood. Stock solutions were prepared in DMSO.
As basal growth medium for the HEK293T-Gα16gust44 cell line[17],[59] served Dulbecco’s modified eagle medium (DMEM) (Thermo Fisher Scientific, Darmstadt, Germany) supplemented with 10 % fetal bovine serum (Sigma-Aldrich, Steinheim, Germany), 2 mM L-glutamine (Sigma-Aldrich, Steinheim, Germany), 100 units/ml penicillin (Sigma Aldrich, Steinheim, Germany) and 100 µg/ml streptomycin (Sigma Aldrich, Steinheim, Germany). Growth conditions were 37 °C, 5 % CO2 and saturated air-humidity[60].
HEK293T-Gα16gust44 cells were seeded on poly-D-lysine (10 µg/ml) coated 96-well plates to reach a confluence of 40-60 % the next day. For transient transfection 150 ng of plasmid DNA containing the receptor of interest and 0.3 µl lipofectamine 2000 (Thermo Fisher Scientific, Darmstadt, Germany) per well were used and transfection took place according to the manual of lipofectamine 2000. […] The empty vector DNA (mock) was transfected as negative control[14],[41].
Cells were loaded using the calcium-sensitive fluorescent dye Fluo-4-AM (Abcam, Cambridge, Great Britain) in the presence of 2.5 mM probenecid (Sigma-Aldrich, Steinheim, Germany) the day after transfection[13],[41]. 1 h after loading, cells were washed with C1 buffer using a BioTek Cell Washer, incubated in the dark for half an hour and washed again. For automated agonist application and measurement of fluorescence changes, a FLIPR^TETRA device (Molecular Devices, San José, United States) was used. Viability of cells was tested by application of 100 nM Somatostatin 14 (Bachem, Bubendorf, Switzerland)[42].
Measured data were negative control corrected by subtracting the signal of the mock-transfected cells and exported to Microsoft Excel using the FLIPR software ScreenWorks 4.2. In Microsoft Excel software, standardization of maximum fluorescence intensities to the basal fluorescence and normalization to the buffer-only control was done to calculate the relative fluorescence changes (ΔF/F).
Initial screening experiments performed in duplicate wells were confirmed by at least one replication and representative traces were selected for display. All dose-response relationships were determined by three independent experiments (biological replicates) performed in duplicates (technical replicates). Threshold concentrations, defined as lowest substance concentrations leading to statistically significant elevated fluorescence changes in receptor-transfected cells compared with empty vector-transfected cells, were determined using SigmaPlot with Student’s t-test to evaluate statistical significance (p < 0.01).

C[C@H](CCC(=O)O)[C@H]1CC[C@H]2[C@@H]3[C@H](O)C[C@@H]4C[C@H](O)CC[C@]4(C)[C@H]3C[C@H](O)[C@]12C [Cholic Acid, cholic acid]
Efficacy = maximal amplitude (ΔF/F) (TAS2R4, bile acids, mean): 0.1231
Efficacy (maximal amplitude ΔF/F), individual data points (TAS2R4, bile acids, single replicates, listed as CA): 0.1201 and 0.127 and 0.1223
RLU, fluorescence trace (Time (s) 0): 0 RLU
RLU, fluorescence trace (Time (s) 2): 19.1006 RLU
RLU, fluorescence trace (Time (s) 4): 0.3953 RLU
RLU, fluorescence trace (Time (s) 6): 2.918 RLU
RLU, fluorescence trace (Time (s) 8): 21.2897 RLU
RLU, fluorescence trace (Time (s) 12): 0.674 RLU
RLU, fluorescence trace (Time (s) 14): -1.277 RLU
RLU, fluorescence trace (Time (s) 16): 19.6047 RLU
RLU, fluorescence trace (Time (s) 18): 0.9534 RLU
RLU, fluorescence trace (Time (s) 18.766 (TCA, TLCA: 18.782)): -8.812 RLU
RLU, fluorescence trace (Time (s) 20.781 (TCA, TLCA: 20.782)): -52.2052 RLU
RLU, fluorescence trace (Time (s) 22.781 (TCA, TLCA: 22.782)): 12.9621 RLU
RLU, fluorescence trace (Time (s) 24.781 (TCA, TLCA: 24.782)): 16.2873 RLU
RLU, fluorescence trace (Time (s) 26.781 (TCA, TLCA: 26.782)): 53.8077 RLU
RLU, fluorescence trace (Time (s) 28.781 (TCA, TLCA: 28.782)): 116.69 RLU
RLU, fluorescence trace (Time (s) 30.781 (TCA, TLCA: 30.782)): 202.767 RLU
RLU, fluorescence trace (Time (s) 32.781 (TCA, TLCA: 32.782)): 286.976 RLU
RLU, fluorescence trace (Time (s) 34.781 (TCA, TLCA: 34.782)): 331.157 RLU
RLU, fluorescence trace (Time (s) 36.781 (TCA, TLCA: 36.782)): 398.002 RLU
RLU, fluorescence trace (Time (s) 38.781 (TCA, TLCA: 38.782)): 447.116 RLU
RLU, fluorescence trace (Time (s) 40.781 (TCA, TLCA: 40.782)): 484.385 RLU
RLU, fluorescence trace (Time (s) 42.781 (TCA, TLCA: 42.782)): 513.813 RLU
RLU, fluorescence trace (Time (s) 44.781 (TCA, TLCA: 44.782)): 571.4 RLU
RLU, fluorescence trace (Time (s) 46.781 (TCA, TLCA: 46.782)): 576.681 RLU
RLU, fluorescence trace (Time (s) 48.781 (TCA, TLCA: 48.782)): 621.92 RLU
RLU, fluorescence trace (Time (s) 50.781 (TCA, TLCA: 50.782)): 628.153 RLU
RLU, fluorescence trace (Time (s) 52.781 (TCA, TLCA: 52.782)): 608.216 RLU
RLU, fluorescence trace (Time (s) 54.781 (TCA, TLCA: 54.782)): 673.422 RLU
RLU, fluorescence trace (Time (s) 56.781 (TCA, TLCA: 56.782)): 649.648 RLU
RLU, fluorescence trace (Time (s) 58.781 (TCA, TLCA: 58.782)): 665.81 RLU
RLU, fluorescence trace (Time (s) 60.781 (TCA, TLCA: 60.782)): 679.484 RLU
RLU, fluorescence trace (Time (s) 62.781 (TCA, TLCA: 62.782)): 679.42 RLU
RLU, fluorescence trace (Time (s) 64.781 (TCA, TLCA: 64.782)): 662.359 RLU
RLU, fluorescence trace (Time (s) 66.781 (TCA, TLCA: 66.782)): 681.18 RLU
RLU, fluorescence trace (Time (s) 68.781 (TCA, TLCA: 68.782)): 661.786 RLU
RLU, fluorescence trace (Time (s) 70.781 (TCA, TLCA: 70.782)): 663.821 RLU
RLU, fluorescence trace (Time (s) 72.781 (TCA, TLCA: 72.782)): 677.656 RLU
RLU, fluorescence trace (Time (s) 74.781 (TCA, TLCA: 74.782)): 687.298 RLU
RLU, fluorescence trace (Time (s) 76.781 (TCA, TLCA: 76.782)): 685.082 RLU
RLU, fluorescence trace (Time (s) 78.781 (TCA, TLCA: 78.782)): 661.065 RLU
RLU, fluorescence trace (Time (s) 80.781 (TCA, TLCA: 80.782)): 659.476 RLU
RLU, fluorescence trace (Time (s) 82.781 (TCA, TLCA: 82.782)): 652.14 RLU
RLU, fluorescence trace (Time (s) 84.781 (TCA, TLCA: 84.782)): 621.974 RLU
RLU, fluorescence trace (Time (s) 86.781 (TCA, TLCA: 86.782)): 644.971 RLU
RLU, fluorescence trace (Time (s) 88.781 (TCA, TLCA: 88.782)): 652.467 RLU
RLU, fluorescence trace (Time (s) 90.781 (TCA, TLCA: 90.782)): 634.908 RLU
RLU, fluorescence trace (Time (s) 92.781 (TCA, TLCA: 92.782)): 616.215 RLU
RLU, fluorescence trace (Time (s) 94.781 (TCA, TLCA: 94.782)): 623.143 RLU
RLU, fluorescence trace (Time (s) 96.781 (TCA, TLCA: 96.782)): 577.048 RLU
RLU, fluorescence trace (Time (s) 98.781 (TCA, TLCA: 98.782)): 590.83 RLU
RLU, fluorescence trace (Time (s) 100.781 (TCA, TLCA: 100.782)): 594.46 RLU
RLU, fluorescence trace (Time (s) 102.781 (TCA, TLCA: 102.782)): 570.853 RLU
RLU, fluorescence trace (Time (s) 104.781 (TCA, TLCA: 104.782)): 535.832 RLU
RLU, fluorescence trace (Time (s) 106.781 (TCA, TLCA: 106.782)): 576.036 RLU
RLU, fluorescence trace (Time (s) 108.781 (TCA, TLCA: 108.782)): 552.984 RLU
RLU, fluorescence trace (Time (s) 110.781 (TCA, TLCA: 110.782)): 539.61 RLU
RLU, fluorescence trace (Time (s) 112.781 (TCA, TLCA: 112.782)): 529.912 RLU
RLU, fluorescence trace (Time (s) 114.781 (TCA, TLCA: 114.782)): 525.649 RLU
RLU, fluorescence trace (Time (s) 116.781 (TCA, TLCA: 116.782)): 514.781 RLU
RLU, fluorescence trace (Time (s) 118.781 (TCA, TLCA: 118.782)): 515.049 RLU
RLU, fluorescence trace (Time (s) 120.781 (TCA, TLCA: 120.782)): 488.175 RLU
RLU, fluorescence trace (Time (s) 122.781 (TCA, TLCA: 122.782)): 489.541 RLU
RLU, fluorescence trace (Time (s) 124.781 (TCA, TLCA: 124.782)): 470.085 RLU
RLU, fluorescence trace (Time (s) 126.781 (TCA, TLCA: 126.782)): 464.513 RLU
RLU, fluorescence trace (Time (s) 128.781 (TCA, TLCA: 128.782)): 464.071 RLU
RLU, fluorescence trace (Time (s) 130.781 (TCA, TLCA: 130.782)): 466.285 RLU
RLU, fluorescence trace (Time (s) 132.781 (TCA, TLCA: 132.782)): 460.578 RLU
RLU, fluorescence trace (Time (s) 134.781 (TCA, TLCA: 134.782)): 427.673 RLU
RLU, fluorescence trace (Time (s) 136.781 (TCA, TLCA: 136.782)): 445.361 RLU
RLU, fluorescence trace (Time (s) 137.547): 436.003 RLU
RLU, fluorescence trace (Time (s) 143.547): 408.618 RLU
RLU, fluorescence trace (Time (s) 149.547): 386.336 RLU
RLU, fluorescence trace (Time (s) 155.547): 351.767 RLU
RLU, fluorescence trace (Time (s) 161.547): 346.602 RLU
RLU, fluorescence trace (Time (s) 167.547): 335.172 RLU
RLU, fluorescence trace (Time (s) 173.547): 264.873 RLU
RLU, fluorescence trace (Time (s) 179.547): 265.3 RLU
RLU, fluorescence trace (Time (s) 185.547): 242.782 RLU
RLU, fluorescence trace (Time (s) 191.547): 246.932 RLU
RLU, fluorescence trace (Time (s) 197.547): 258.506 RLU
RLU, fluorescence trace (Time (s) 203.547): 232.756 RLU
RLU, fluorescence trace (Time (s) 209.547): 219.78 RLU
RLU, fluorescence trace (Time (s) 215.547): 251.011 RLU
RLU, fluorescence trace (Time (s) 221.547): 260.591 RLU
RLU, fluorescence trace (Time (s) 227.547): 271.039 RLU
RLU, fluorescence trace (Time (s) 233.547): 291.66 RLU
RLU, fluorescence trace (Time (s) 239.547): 269.732 RLU
RLU, fluorescence trace (Time (s) 245.547): 266.514 RLU
RLU, fluorescence trace (Time (s) 293.547): 239.384 RLU
RLU, fluorescence trace (Time (s) 299.547): 250.874 RLU
RLU, fluorescence trace (Time (s) 305.547): 250.223 RLU
RLU, fluorescence trace (Time (s) 311.547): 248.529 RLU
RLU, fluorescence trace (Time (s) 317.547): 268.105 RLU
RLU, fluorescence trace (Time (s) 323.547): 278.662 RLU
RLU, fluorescence trace (Time (s) 329.547): 259.586 RLU
RLU, fluorescence trace (Time (s) 335.547): 285.984 RLU
RLU, fluorescence trace (Time (s) 341.547): 283.853 RLU
RLU, fluorescence trace (Time (s) 347.547): 275.523 RLU
RLU, fluorescence trace (Time (s) 353.547): 309.056 RLU
RLU, fluorescence trace (Time (s) 359.547): 277.364 RLU
Activation threshold concentration TAS2R4 (lowest concentration with significantly increased fluorescence vs empty vector (p < 0.01)): 30 µM
